According to patent US8956824B2, “Methods for identifying allosteric modulators of ship polypeptides” (British Columbia Cancer Agency Branch, priority 2006, dated 2015):
Entries after “also recorded” stand apart in the source; their conditions may differ.

Target: T1, PH domain deleted SHIP1 (Mus musculus, UniProt Q9ES52, DEL292-400/E403A/P402A/Q401A)
T1 construct: Full length, wild-type SHIP1 enzyme (wt) or SHIP1 enzyme in which the PH or C2 domains were deleted; His6 (N); made in house; 293T cells are stated only for the wild-type enzyme
T1 sequence (Q9ES52 with tags, fused parts or gaps DEL292-400/Q401A/P402A/E403A): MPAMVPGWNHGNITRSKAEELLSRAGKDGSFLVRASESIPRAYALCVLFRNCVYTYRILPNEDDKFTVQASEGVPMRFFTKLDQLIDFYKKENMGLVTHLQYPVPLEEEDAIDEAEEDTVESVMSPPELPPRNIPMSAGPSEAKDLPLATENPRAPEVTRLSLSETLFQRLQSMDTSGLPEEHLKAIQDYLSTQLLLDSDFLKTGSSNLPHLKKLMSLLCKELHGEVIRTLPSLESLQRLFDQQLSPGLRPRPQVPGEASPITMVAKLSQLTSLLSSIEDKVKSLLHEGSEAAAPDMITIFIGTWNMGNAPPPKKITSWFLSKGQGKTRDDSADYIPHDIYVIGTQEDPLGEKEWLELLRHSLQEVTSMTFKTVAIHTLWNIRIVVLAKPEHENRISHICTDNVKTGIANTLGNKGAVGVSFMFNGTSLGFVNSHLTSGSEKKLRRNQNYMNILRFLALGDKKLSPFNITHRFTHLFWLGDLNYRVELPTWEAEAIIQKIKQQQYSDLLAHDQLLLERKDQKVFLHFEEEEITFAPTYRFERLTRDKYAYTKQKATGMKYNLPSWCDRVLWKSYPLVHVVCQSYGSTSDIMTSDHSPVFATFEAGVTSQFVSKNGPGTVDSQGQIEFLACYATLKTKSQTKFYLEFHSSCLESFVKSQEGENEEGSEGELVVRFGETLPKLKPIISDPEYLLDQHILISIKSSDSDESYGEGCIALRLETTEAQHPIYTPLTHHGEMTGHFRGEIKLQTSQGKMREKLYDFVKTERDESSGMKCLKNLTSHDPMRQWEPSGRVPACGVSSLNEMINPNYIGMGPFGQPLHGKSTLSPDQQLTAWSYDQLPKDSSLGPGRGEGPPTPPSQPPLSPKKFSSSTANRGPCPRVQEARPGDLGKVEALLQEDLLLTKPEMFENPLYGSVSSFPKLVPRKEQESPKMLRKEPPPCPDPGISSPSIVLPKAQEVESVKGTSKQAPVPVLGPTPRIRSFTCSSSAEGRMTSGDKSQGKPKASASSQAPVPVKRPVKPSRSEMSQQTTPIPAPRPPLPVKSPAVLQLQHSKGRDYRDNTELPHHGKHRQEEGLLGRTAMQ
Assay: In vitro SHIP enzyme assay, PH domain deleted SHIP1
Assay type: biochemical
Conditions: FIG. 10, FIG. 14A
From the text: The SHIP1 PH domain deletion mutant and an isolated PH domain construct were generated using techniques similar to those used for the C2 domain. More specifically, the PH domain (amino acids 984-1319) was deleted from the murine SHIP (mSHIP) cDNA as follows: using pME18S-mSHIP1 as a template, a 527 by PCR fragment (“Upstream Fragment”) was generated using the indicated primers to generate a fragment corresponding to sequence immediately upstream of the SHIP PH domain within which resides a unique AccI restriction cut site. A Nod restriction cut site was also introduced to the 3′ end of this fragment. The PCR product was digested with Acd and Nod, and gel purified. Using pME18S-mSHIP1 as a template, a 776 by PCR fragment (“Downstream Fragment”) was generated using the indicated primers corresponding to sequence immediately downstream of the SHIP PH domain within which resides a unique ClaI restriction cut site. A Nod restriction cut site was introduced to the 5′ end of this fragment. […]
In vitro SHIP enzyme assay. […] The reaction was allowed to proceed for 20 min at 37° C. and the amount of inorganic phosphate released assessed by the addition of Malachite Green reagent followed by an absorbance measurement at 650 nm (15). […] Enzyme data are expressed as the mean of triplicates+/−SEM. […]

| Molecule | activation of SHIP1 with PH domain deleted |
| --- | --- |
| Cc1cc(O)cc2c1[C@]1(C)CC[C@H]3C(C)(C)CCC[C@]3(C)[C@H]1C2 [AQX-MN100] | attenuates but does not prevent activation; also recorded: abrogates ability of SHIP to be activated |
| phosphatidylinositol-3,4-bisphosphate [PI-3,4-P2, reference compound] | abrogates ability of SHIP to be activated |
